{"source": "patent US20070161697A1", "about": "“Hydrazide type compounds and the use thereof in pharmaceutical compositions for the treatment of cardiovascular diseases” (priority 2004, published 2007)", "type_in_all_cases": "in vivo", "key": {"[1]": {"system": "ApoE −/− mice", "experiment": "Insulin in plasma, ApoE −/− mice on regimen rich in cholesterol", "excerpt": "(§1) Firstly, mice devoid of the coding gene for Apo lipoprotein E (ApoE −/−) have been used. These mice represent a model of choice of studying early atherosclerosis and development of a plaque rich in foamy macrophages. Male C57BL/6J mice homozygote for deletion of the ApoE gene were subjected to a normal dietary regimen until the age of eight weeks. These mice (n=8 per group) subsequently received ad libitum and for 12 weeks either a dietary regimen not enriched with cholesterol or fat, or an enriched regimen, containing 1.5 g/kg of cholesterol and 200 g/kg of fat of milk origin. The untreated mice underwent daily intraperitoneal injections of a solution containing DMSO at 10%. The treated mice received by intraperitoneal injection the same solution containing 2 or 20 μg (i.e. 0.1 mg/kg/day or 1 mg/kg/day) of the compound CGP 02-01. Following the blood sample for the biochemical analyses, the mice were killed.\nAssay of insulin in plasma may be performed by radioimmunological assay using commercially available kits comprising specific anti-insulin antibodies of mice or rats. One may for example use the rat/mouse ELISA kits, Linco research (ref. EZRMI-13K)."}, "[2]": {"system": "ApoE −/− mice", "experiment": "Abdominal fatty mass, ApoE mice on regimen rich in cholesterol and fat", "conditions": "1 mg/kg, 3 months", "excerpt": "as §1\nApoE mice subjected to a dietary regimen rich in cholesterol and fat were killed after 3 months of treatment with the compound CGP 02-01 at doses of 0.1 mg/kg and 1 mg/kg. The abdominal fatty mass was recovered by dissection, dried and expressed as dry weight."}, "[3]": {"system": "ApoE −/− mice", "experiment": "Triglyceride deposit in the aortas of ApoE −/− mice", "conditions": "control 185±33", "excerpt": "as §1\nThe triglycerides which accumulate in the aortic wall were measured in the following manner: the aortas of the animals are rinsed with physiological saline after dissection. The lipid mass of the adventitia is eliminated by dissection and the intima media is dehydrated. The triglyceride level is measured and expressed as the weight of triglycerides per dry weight of tissue."}, "[4]": {"system": "ApoE negative mice", "experiment": "Weight gain / abdominal fatty mass in ApoE negative mice on normal regimen", "conditions": "20 μg per day for 41 days; normal dietary regimen; FIG. 2", "description": "The mice were treated for 41 days at a dose of 20 μg of compound CGP02-01 per day. The control mice and the treated mice were fed with a normal dietary regimen without any cholesterol overload."}, "[5]": {"system": "ApoE −/− mice", "experiment": "Circulating triglycerides, ApoE −/− mice on regimen rich in cholesterol and fat", "conditions": "1 mg/kg; 3 months", "excerpt": "as §1, with “Following the blood sample for the biochemical analyses, the mice were killed.” left out\nAssay of serum triglycerides may be performed enzymatically using the commercially available kit. […] The glycerol 3 phosphate is subsequently transformed into dihydroxyacetone in generating oxygenated water (H202) which may be detected by formation of quinoneimine in the presence of parachlorophenol, amino-4-antipyrin and peroxidase. The intensity of the quinoneimine coloration is subsequently measured at 505 nm. This coloration is proportional to the quantity of triglycerides present in the sample."}, "[6]": {"system": "ApoE −/− mice", "experiment": "HDL level in plasma, ApoE −/− mice on regimen rich in cholesterol", "excerpt": "as §1, with “The treated mice received by intraperitoneal injection the same solution containing 2 or 20 μg (i.e. 0.1 mg/kg/day or 1 mg/kg/day) of the compound CGP 02-01.” left out\nThe plasma HDL level is measured by tried and trusted commercial methods which use high density lipoprotein separation reagents and by measurement of the cholesterol level associated with these high molecular weight lipoproteins (Biomérieux kit ref. 61533 for example)."}, "[7]": {"system": "Wistar rats", "experiment": "Total cholesterol in plasma, rats on dietary regimen rich in fructose", "conditions": "50 mg/kg oral, 3 weeks of treatment", "description": "Secondly, the activity of the compound CGP 02-01 was studied using a reference rat-fructose model. Groups of Wistar rats (n=12) were subjected for 3 weeks to a dietary regimen containing […] of fructose. Under these conditions, the rats develop a metabolic syndrome comprising hyperglycaemia, hyperinsulinaemia, hypercholesterolaemia and hypertriglyceridaemia. Groups of rats subsequently received by forced feeding 50 mg/kg of the compound CGP 02-01 dissolved in a 2% tween solution prepared in methylcellulose. The blood samples for the biochemical analyses were performed after 1, 2 and 3 weeks. Independent groups of rats wee treated under the same conditions with metformin hydrochloride at a dose of 50 mg/kg. The metformin served as a reference in this metabolic syndrome model. The circulating total cholesterol may be measured by enzymatic assay using the commercially available kit. This assay may for example use an enzymatic sequence of the cholesterol-esterase/cholesteroloxydase/chromogenic peroxidase type. In summary, the total esterified cholesterol is transformed into free cholesterol and fatty acid by the action of cholesterol esterase. The non-esterified cholesterol is subsequently measured by the formation of quinoeimine in the presence of cholesterol oxidase and peroxidise. The intensity of the quinoneimine coloration is proportional to the quantity of cholesterol present in the sample."}, "[8]": {"system": "Wistar rats", "experiment": "Circulating triglycerides, rats on dietary regimen rich in fructose", "conditions": "oral", "description": "Secondly, the activity of the compound CGP 02-01 was studied using a reference rat-fructose model. Groups of Wistar rats (n=12) were subjected for 3 weeks to a dietary regimen containing […] of fructose. […] Groups of rats subsequently received by forced feeding 50 mg/kg of the compound CGP 02-01 dissolved in a 2% tween solution prepared in methylcellulose. The blood samples for the biochemical analyses were performed after 1, 2 and 3 weeks. Independent groups of rats wee treated under the same conditions with metformin hydrochloride at a dose of 50 mg/kg. The metformin served as a reference in this metabolic syndrome model. Assay of serum triglycerides may be performed enzymatically using the commercially available kit. One may use kits from Biomérieux for example (ref. 61.238). In summary, the triglycerides are treated with a lipase in order to generate fatty acids. In the presence of ATP, the glycerol is transformed by glycerokinase into glycerol 3 phosphate. The glycerol 3 phosphate is subsequently transformed into dihydroxyacetone in generating oxygenated water (H202) which may be detected by formation of quinoneimine in the presence of parachlorophenol, amino-4-antipyrin and peroxidase. The intensity of the quinoneimine coloration is subsequently measured at 505 nm. This coloration is proportional to the quantity of triglycerides present in the sample."}}, "data": [{"molecule": "COc1cc(O)c(/C=N/NC(=O)c2cc3ccccc3s2)c(OC)c1", "note": "[CGP02-01, N′-[(1E)-(2-hydroxy-4,6-dimethoxyphenyl)methylene]-1-benzothiophene-2-carbohydrazide]", "values": [{"measurement": "Variation of plasma insulin level", "setting": "[1]; 0.1 or 1 mg/kg", "result": 18.8, "unit": "%"}, {"measurement": "Plasma insulin level", "setting": "[1]; 0.1 or 1 mg/kg IP, 3 months, control 1.17±0.2, p<0.01", "result": "0.95 ± 0.16", "unit": "ng/mL"}, {"measurement": "Reduction in abdominal fatty mass", "setting": "[2]", "result": 48.3, "unit": "%"}, {"measurement": "Abdominal fatty mass (dry weight)", "setting": "[2]; control 760±231, p<0.01", "result": "393 ± 78", "unit": "mg"}, {"measurement": "Triglyceride deposit on the aortic wall", "setting": "[3]; 0.1 mg/kg", "result": "156 ± 31", "unit": "µg/mg"}, {"measurement": "Triglyceride deposit on the aortic wall", "setting": "[3]; 1 mg/kg, three months, n=8", "result": "131 ± 42 µg/mg (dry weight)"}, {"measurement": "Weight gain (abdominal fatty mass)", "setting": "[4]", "result": "reduction in weight gain"}, {"measurement": "Variation of plasma triglyceride level, treated in relation to untreated mice", "setting": "[5]", "result": "twice as great"}, {"measurement": "Plasma HDL level", "setting": "[6]; 0.1 mg/kg, cholesterol-rich regimen, untreated 0.11 ± 0.05", "result": "0.15 ± 0.06", "unit": "g/L"}, {"measurement": "Plasma HDL level", "setting": "[6]; 1 mg/kg, cholesterol-rich regimen, untreated 0.11 ± 0.05", "result": "0.15 ± 0.05", "unit": "g/L"}, {"measurement": "Variation of plasma HDL level", "setting": "[6]; regimen rich in cholesterol and fatty acid", "result": 38.2, "unit": "%"}, {"measurement": "Plasma HDL level", "setting": "[6]; regimen rich in cholesterol and fatty acid, dose not stated, control 0.11±0.005", "result": "0.15 ± 0.005", "unit": "g/L"}, {"measurement": "Reduction in total cholesterol", "setting": "[7]", "result": 54.5, "unit": "%"}, {"measurement": "Plasma total cholesterol level", "setting": "[7]; control 0.79±0.05", "result": "0.36 ± 0.03", "unit": "g/L"}, {"measurement": "Plasma triglyceride level", "setting": "[8]; 50 mg/kg, 3 weeks, control 1.39±0.13", "result": "0.47 ± 0.07", "unit": "g/L"}, {"measurement": "Variation of plasma triglyceride level", "setting": "[8]; p<0.01", "result": 66.2, "unit": "%"}]}]}
